Assay results from patent publication US8703172B2, “Sphingolipids for improvement of the composition of the intestinal flora” (Nederlandse Organizatie voor …, priority 2003, dated 2014).
Converted amounts (≈) assume the structure as drawn. “Also recorded” adds a separate entry of the source.

Columns and labels:
Bacteroides fragilis = test: MIC on agar plates (RCBA); type: cell-based; conditions: RCBA agar plate, anaerobic, 72 hours at 30° C.
[1] = system: Lactobacillus acidophilus; test: Survival in liquid ileum medium; conditions: within 200 minutes
[2] = system: Lactobacillus acidophilus; test: MIC on agar plates (MRSA)
Clostridium perfringens = test: microbe, parasite or virus in culture; type: cell-based; conditions: 72 h, read-out: MIC, C. perfringens
[3] = system: Lactobacillus acidophilus; test: Antimicrobial activity in small intestine model TIM-1; type: cell-based; conditions: 20 μg/ml of sphingolipid; lumen samples plated on Rogosa agar
Salmonella enteritidis = test: MIC on agar plates (TSA); type: cell-based; conditions: TSA agar plate, aerobic, 48 hours at 30° C.
[4] = system: Streptococcus suis type 2; test: MIC on agar plates (TSA)
Lactobacillus sake = test: MIC on agar plates (MRSA)
[5] = system: Bifidobacterium adolescentis; test: MIC on agar plates (RCBA); type: cell-based; conditions: RCBA agar plate, anaerobic, 72 hours at 30° C.
Bifidobacterium spp. = test: MIC on agar plates (RCBA); type: cell-based; conditions: RCBA agar plate, anaerobic, 72 hours at 30° C.
Clostridium difficile [6] = test: Antimicrobial activity in small intestine model TIM-1; type: cell-based; conditions: 20 μg/ml of sphingolipid; lumen samples plated on Clostridium difficile agar
Pseudomonas aeruginosa = test: MIC on agar plates (TSA); type: cell-based; conditions: TSA agar plate, aerobic, 48 hours at 30° C.
[7] = type: in vitro ADME
Experimental: (§1) Because the sphingolipids need to be transported together with the food to the small and large intestines to be able to be active there, the transport of phytosphingosine and sphinganine in the stomach and small intestine model TIM-1 was tested. Also, the transport of phytosphingosine in a fistulated pig was tested after the animal had been fed with feed containing phytosphingosine (1 wt. %). In a fistulated pig, the small intestine is uncoupled from the large intestine so that the digested feed at the end of the small intestine can be collected.
To investigate whether sphingolipids from the food are transported through the small intestine without being absorbed or being chemically or enzymatically modified in the small intestine, phytosphingosine and sphinganine were mixed in a standard Tim-1 food and exposed to a TIM-1 treatment. Of each sphingolipid, 5 mg per 100 grams of food (0.005 wt. %) in the food were tested. After starting the TIM-1 digestion processes in the TIM-1 stomach, at the fixed times, lumen samples of 100 grams were taken. Also, dialysate samples were taken from the material which was transported through the semi-permeable TIM-1 membrane. The dialysate samples varied between 1428 and 1122 grams. […] Next to the samples, the exposure time in minutes is given.

Enterococcus = test: Antimicrobial activity in TIM-2 large intestine model; type: cell-based
Listeria monocytogenes = test: MIC on agar plates (TSA)
Bifidobacterium = test: Antimicrobial activity in TIM-2 large intestine model; type: cell-based
[8] = system: sulfite-reducing Clostridium; test: as above
Gram-positive bacteria = test: Antimicrobial activity on agar plates, summary for Gram-positive bacteria; type: cell-based
Clostridium spp. = test: MIC on agar plates (RCBA); type: cell-based
[9] = in vivo
Experimental: as §1
To investigate in an in vivo system whether sphingolipids from the food do actually arrive in the large intestine and are not prematurely absorbed or metabolized, pig basic feed to which phytosphingosine (1 wt. %) was added was fed to a fistulated pig.
The feed was prepared by mixing a solution of phytosphingosine in ethanol with the feed and drying it in vacuo. Every hour, the intestinal content (chymus) at the end of the small intestine was separately collected and frozen dry. The dry intestinal contents were then extracted with chloroform/methanol (2:1, v/v). The extracts were then filtered over glass wool and evaporated under a nitrogen flow. The residues were examined for the presence of phytosphingosine, sphingosine, sphinganine and sphingomyelin by means of LC-MS.

Enterobacteriaceae = test: Antimicrobial activity in TIM-2 large intestine model; type: cell-based
Bacteroides = test: as above; type: cell-based
Clostridium difficile [10] = test: Survival in liquid ileum medium; type: cell-based; conditions: within 200 minutes
Lactobacillus = test: Antimicrobial activity in TIM-2 large intestine model; type: cell-based
Clostridium difficile [11] = test: as above; type: cell-based
Fusobacterium nucleatum = test: MIC on agar plates (RCBA); type: cell-based; conditions: RCBA agar plate, anaerobic, 72 hours at 30° C.
Lactobacillus casei = test: MIC on agar plates (MRSA)
Clostridium difficile [12] = test: MIC on agar plates (RCBA); type: cell-based; conditions: Clostridioides difficile; RCBA agar plate, anaerobic, 72 hours at 30° C.
Leuconostoc carnosum = test: MIC on agar plates (MRSA)
Enterococcus hirae = test: MIC on agar plates (MRSA)
Bacillus cereus = test: MIC on agar plates (TSA)
[13] = rat, in vivo; cited from earlier work
bacteria tested = test: Antimicrobial activity on agar plates, summary for the bacteria tested; type: cell-based; conditions: agar plates
[14] = ileum medium, absence of bile, 10 and 50 μg/ml
[15] = 60 min, 5 mg per 100 grams of food
[16] = 120 min, 5 mg per 100 grams of food
[17] = 180 min, 5 mg per 100 grams of food
[18] = 240 min, 5 mg per 100 grams of food
[19] = TSA agar plate, aerobic, 48 hours at 30° C.
[20] = MRSA agar plate, anaerobic, 72 hours at 30° C.

## CCCCCCCCCCCCCC[C@@H](O)[C@@H](O)[C@@H](N)CO [Phytosphingosine, phytosphingosine]
Bacteroides fragilis; Bacteroides fragilis, read-out: MIC, B. fragilis
  MIC: 2.1 mg/L (≈ 6.61 µM)
[1]; [14]
  Killing of Lactobacillus acidophilus: virtually completely killed
[1]; liquid cultures, 50 ppm
  Killing of Lactobacillus acidophilus: for the larger part killed
[2]; Lactobacillus acidophilus, 72 h, read-out: MIC, L. acidophilus
  MIC: > 36.5 mg/L
Clostridium perfringens
  MIC: 5.9 mg/L (≈ 18.6 µM)
[3]
  Antimicrobial activity against Lactobacillus acidophilus in TIM-1: no demonstrable antimicrobial activity
Salmonella enteritidis; Salmonella enterica, ENTERITIDIS, read-out: MIC, S. enteritidis
  MIC: > 731 mg/L
[4]; Streptococcus suis, TYPE2, 48 h, read-out: MIC, S. suis type 2
  MIC: 6.3 mg/L (≈ 19.8 µM)
Lactobacillus sake; Latilactobacillus sakei, 72 h, read-out: MIC, L. sake
  MIC: 2.2 mg/L (≈ 6.93 µM)
[5]; Bifidobacterium adolescentis, read-out: MIC, B. adolescentis
  MIC: 8 mg/L (≈ 25.2 µM)
Bifidobacterium spp.; Bifidobacterium, read-out: MIC, Bif. spp.
  MIC: 0.9 mg/L (≈ 2.83 µM)
Clostridium difficile [6]
  Antimicrobial activity against Clostridium difficile in TIM-1: no demonstrable antimicrobial activity
Pseudomonas aeruginosa; Pseudomonas aeruginosa, read-out: MIC, P. aeruginosa
  MIC: > 731 mg/L
[7]
  Transport through the TIM-1 system: transported to the large intestine to a sufficient extent
[7]; 5 mg per 100 grams of food
  Concentration in TIM-1 sample: Dialysate ileum 0-120′: 0 µg/mL
  Concentration in TIM-1 sample: Dialysate ileum 120-240′: 0 µg/mL
  Concentration in TIM-1 sample: Dialysate jejunum 0-120′: 0 µg/mL
  Concentration in TIM-1 sample: Dialysate jejunum 120-240′: 0 µg/mL
  Concentration in TIM-1 sample: Food: 5.19 µg/mL
  Concentration in TIM-1 sample: Residue jejunum/ileum + dialysis fluid: 3.32 µg/mL
  Concentration in TIM-1 sample: Residue stomach/duodenum + dialysis fluid: 1.03 µg/mL
  Share of the amount used found in the samples (rough mass balance): approx. 20%
[7]; [15]
  Concentration in TIM-1 sample: Lumen ileum 60′: 0.20 µg/mL
  Concentration in TIM-1 sample: Lumen jejunum 60′: 1.47 µg/mL
[7]; [16]
  Concentration in TIM-1 sample: Lumen ileum 120′: 2.23 µg/mL
  Concentration in TIM-1 sample: Lumen jejunum 120′: 1.79 µg/mL
[7]; [17]
  Concentration in TIM-1 sample: Lumen ileum 180′: 2.22 µg/mL
  Concentration in TIM-1 sample: Lumen jejunum 180′: 3.41 µg/mL
[7]; [18]
  Concentration in TIM-1 sample: Lumen ileum 240′: 1.96 µg/mL
  Concentration in TIM-1 sample: Lumen jejunum 240′: 4.10 µg/mL
Enterococcus; 10 μg/ml
  Killing of other bacteria: Enterococcus: no significant killing
Enterococcus; 50 μg/ml
  Enterococcus decreases by a factor of: 5
Listeria monocytogenes; Listeria monocytogenes, 48 h, read-out: MIC, L. monocytogenes
  MIC: 6.3 mg/L (≈ 19.8 µM)
Bifidobacterium; 10 μg/ml
  Killing of other bacteria: Bifidobacterium: no significant killing
Bifidobacterium; 50 μg/ml
  Bifidobacterium decreases by a factor of: 55
[8]; 10 μg/ml
  Killing of other bacteria: sulfite-reducing clostridia: no significant killing
[8]; 50 μg/ml
  Sulfite-reducing Clostridium decreases by a factor of: 36
Gram-positive bacteria
  Antimicrobial activity against Gram-positive bacteria: killed; also recorded: strong antimicrobial activity
Clostridium spp.; Clostridium, 72 h, read-out: MIC, C. spp.
  MIC: 1.1 mg/L (≈ 3.46 µM)
[9]
  Health of the pig: remained healthy
[9]; pig
  Maximum phytosphingosine in intestinal contents at the end of the small intestine: 76 μg/g of dry intestinal contents
  Time from which phytosphingosine leaves the small intestine: from two hours after feeding
  Time of the maximum after feeding: 9 h
Enterobacteriaceae; 10 μg/ml
  Killing of other bacteria: Enterobacteriaceae: no significant killing
Enterobacteriaceae; 50 μg/ml
  Enterobacteriaceae decrease by a factor of: 77
Bacteroides; 10 μg/ml
  Killing of other bacteria: Bacteroides: no significant killing
Bacteroides; 50 μg/ml
  Bacteroides decreases by a factor of: 10
Clostridium difficile [10]; [14]
  Killing of Clostridium difficile: virtually completely killed
Clostridium difficile [10]; liquid cultures, 50 ppm
  Killing of Clostridium difficile: for the larger part killed
Lactobacillus; 10 μg/ml
  Killing of other bacteria: Lactobacillus: no significant killing
Lactobacillus; 50 μg/ml
  Lactobacillus decreases by a factor of: 24
Clostridium difficile [11]; TIM-2, 10 μg/ml
  Killing of C. difficile: no significant killing
Clostridium difficile [11]; TIM-2, 50 μg/ml, within 12 hours
  Decrease of C. difficile: 550 fold
Clostridium difficile [11]; TIM-2 large intestine model
  Selectivity of antimicrobial activity against Clostridium difficile: selective antimicrobial activity
Fusobacterium nucleatum; Fusobacterium nucleatum, read-out: MIC, F. nucleatum
  MIC: < 6.3 mg/L
Lactobacillus casei; Lacticaseibacillus casei, 72 h, read-out: MIC, L. casei
  MIC: > 36.5 mg/L
Clostridium difficile [12]
  MIC: 5.7 mg/L (≈ 18 µM)
Leuconostoc carnosum; 72 h, read-out: MIC, L. carnosum
  MIC: < 0.3 mg/L
Enterococcus hirae; Enterococcus hirae, 72 h, read-out: MIC, E. hirae
  MIC: > 36.5 mg/L
Bacillus cereus; Bacillus cereus, 48 h, read-out: MIC, B. cereus
  MIC: 6.3 mg/L (≈ 19.8 µM)

## sphingomyelin
Bacteroides fragilis
  MIC, B. fragilis: >731 mg/L
[2]; anaerobic, 72 hours at 30° C.
  MIC, L. acidophilus: >731 mg/L
Salmonella enteritidis
  MIC, S. enteritidis: >731 mg/L
[4]; [19]
  MIC, S. suis type 2: >731 mg/L
Lactobacillus sake; anaerobic, 72 hours at 30° C.
  MIC, L. sake: >731 mg/L
[5]
  MIC, B. adolescentis: >731 mg/L
Bifidobacterium spp.
  MIC, Bif. spp.: >731 mg/L
Pseudomonas aeruginosa
  MIC, P. aeruginosa: >731 mg/L
Listeria monocytogenes; [19]
  MIC, L. monocytogenes: >731 mg/L
Clostridium spp.; RCBA agar plate, anaerobic, 72 hours at 30° C.
  MIC, C. spp.: >731 mg/L
[9]; pig
  Presence in the intestinal contents at the end of the small intestine: larger amounts
Fusobacterium nucleatum
  MIC, F. nucleatum: >731 mg/L
Lactobacillus casei; [20]
  MIC, L. casei: >731 mg/L
[13]
  Share of the sphingomyelin fed that is found in the feces: approximately 25%
Leuconostoc carnosum; agar plate, anaerobic, 72 hours at 30° C.
  MIC, L. carnosum: >731 mg/L
Bacteria tested
  Inhibition of the bacteria tested: do not inhibit any of the bacteria tested
Enterococcus hirae; [20]
  MIC, E. hirae: >731 mg/L
Bacillus cereus; [19]
  MIC, B. cereus: >731 mg/L
